Reference: US20170049739A1, “PROSTACYCLIN COMPOUNDS, COMPOSITIONS AND METHODS OF USE THEREOF” (INSMED INCORPORATED, priority 2013, published 2017)
Entries after “also recorded” stand apart in the source; their conditions may differ.

Columns and labels:
esterase = assay: Esterase mediated conversion of treprostinil compounds to treprostinil; assay type: in vitro ADME; conditions: 37° C., up to 1 hr
Procedure: A set of studies was conducted to determine the conversion kinetics to treprostinil of linear treprostinil compounds versus various branched treprostinil compounds. 0.4 mM of linear C8-TR or branched treprostinil compounds 2-dimethyl-1-propanyl-TR, 3,3-dimethyl-1-butanyl-TR, 2-ethyl-1-butanyl-TR, 5-nonanyl-TR, or 3-pentanyl-TR (see below for structures) were incubated with 0.2 U esterase at 37° C. for 1 hour, and the conversion (% of total) was calculated at 0.25, 0.5, 0.75, or 1 hour incubation time. • C8-TR (i.e., the compound of Formula (A) wherein R2=
The conversion is relative to the C8-TR compound and conversion was measured at 1 hr. post esterase incubation, • C8-TR (i.e., the compound of Formula (A) wherein R2=
Conversion was measured at 1 hr. post esterase incubation. • 4C7-TR (i.e., the compound of Formula (A) wherein R2=

EP2 prostanoid receptor = molecular target: T1, EP2 prostanoid receptor (Homo sapiens, UniProt P43116); assay: GloSensor cAMP assay in CHO-K1 cells co-transfected with the EP2 receptor; assay type: cell-based
T1 construct: host or cells: CHO-K1 cells, transiently co-transfected with pGloSensor-22F cAMP plasmid and pGEM-3Zf(+)
From the text: cAMP is a second messenger involved in signal transduction of G-protein coupled receptors (GPCRs) acting through Ga-s and Ga-i proteins. Because the treprostinil receptor is a GPCR, the assay provides an indication of whether the respective prostacyclin compound (or metabolite thereof) binds its receptor and activates the GPCR cell signaling cascade. The GloSensorTM assay harnesses a genetically modified form of firefly luciferase into which a cAMP-binding protein moiety has been inserted. Upon binding of cAMP, a conformational change is induced leading to increased light output. The EP2 prostanoid receptor was co-transfected with the GloSensorTM plasmid (Promega) into CHG-K1 cells as follows. CHO-K1 cells were harvested when the monoloayer was at 50-90% confluence. First, cells were washed with 5 mL PBS. […] The media was aspirated, and the cell pellet was resuspended in 10 mL of growth media. Cell number was determined using a hemacytometer. Each well of a culture treated 96 […] bottom plate (Costar, Cat #: 3917) was seeded with 1×10^4 cells per 100 μL antibiotic-free growth media. […] For small scale transfections of up to 20 wells, the pGLoSensor-22F cAMP plasmid (Promega, Cat #: E2301) (2 μg): (EP2) (10 ng) (Origene, Cat #: SC126558) : pGEM-3Zf(+) (10 ng) (Promega, Cat #: P2271) ratio was diluted to a final concentration of 12.6 ng/μL (total plasmid) in Opti-MEM I reduced-serum medium (Life Technologies, Cat #: 1985062). Next, 6 μL of FuGENE HD transfection reagent (Promega, Cat #: E2311) was added to 160 μL of diluted plasmid and mixed carefully by gentle pipetting. The complex was incubated at room temperature for 0 to 10 minutes, and then 8 μL of the complex was added per well of a 96 well white assay plate (Costar, Cat #: 3917) and gently mixed without disturbing the cell monolayer. […] Following incubation, cells were treated and analyzed. For larger scale transfections, the aforementioned steps were scaled up accordingly, and cells were frozen following the last incubation. In order to prepare frozen transfected CHO-K1 cells, the media was aspirated from culture flasks and cells were rinsed with 5 mL PBS. […] Cell number was determined using a hemacytometer. The media was aspirated, and the cell pellet was resuspended in freezing media (Millipore, cat #: S-002-5F) at 2.5×10^6 cells/vial. Transfected cells were incubated overnight at -80° C. before transfer to liquid nitrogen for long term storage. […] In preparation for cAMP measurement, the cells were equilibrated with the GloSensor cAMP reagent prior to treatment. For equilibration, the medium was carefully removed from the individual well. Next, 100 μL of equilibration medium (6% v/v of Glosensor Reagent stock solution (Promega, Cat #: E291), 10% FBS (Hyclone, Cat #: SH30071.03) and 88% CO2 independent medium (Life Technologies, Cat #: 18045088)) was added per well of the 96-well plate, and added to the side of each well. The plate was then incubated for 2 hours at room temperature. A first pre-read measurement was taken using a microplate reader (MicroLumat Plus). Plates were incubated for an additional 10 minutes at room temperature, followed by a second pre-read measurement. […] Following treatment, each plate was read every 5 minutes for the duration of the assay using a microplate reader (MicroLumat Plus). In order to determine the fold change in cAMP relative to the control, the transfection efficiency was first determined by dividing the second pre-read measurement by the average of the corresponding pre-read measurements. Next, the normalized relative light units (RLUs) of the samples were determined by dividing the plate read measurement by the transfection efficiency. The fold change in cAMP relative to the control was then determined by dividing the normalized RLU of the samples by the normalized RLU of the control. […] Results from the three highest concentrations are provided at FIG. 3A (10 μM), FIG. 3B (1 μM) and FIG. 3C (0.1 μM). […]

NR8383 cells = assay: NR8383 cell proliferation assay; assay type: cell-based, rat; conditions: unformulated alkyl esters, 72 hour incubation; for Effect on cell proliferation: 0.195 μM-25 μM
Procedure: Rat alveolar NR8383 cells were harvested when the monolayer was 50-90% confluent (use passage 5-11). Because the NR8383 cells include both adherent and non-adherent cells, media was transferred to a 50 mL Falcon tube. To obtain the cells remaining in the flask, 2 mL of plain media was added, and the remaining cells were scraped out of the 75 cm^2 flask with a cell scraper and added to the 50 mL tube. […] SH30071.03) […] Technologies, cat #: 15410-122)). Cell number was determined using a hemacytometer. […] Measurements and calculations were made as described above for the CHO-K1 cells.

CHO-K1 cells = assay: CHO-K1 cell proliferation assay; conditions: unformulated alkyl esters, 48 hour incubation; for Effect on cell proliferation: concentration with detectable inhibition: 0.195 μM-25 μM
Procedure: CHG-K1 cells were harvested when the cell monolayer was 50-90% confluent (use passage 4-11). Media was aspirated out of the flask, and cells were rinsed with 2 mL of F12 media. Next, 1 mL of pre-warmed (37° C.) 0.25%o trypsin-EDTA (Life Technologies, Cat#: 25300054) was added, and cells were dislodged from the flask by tapping it on the side. Complete growth media (F12 (Life Technologies, Cat #: 31765092) +10%FBS (Hyclone, Cat #: SH30071.03)+1× Pen-Strep (Life Technologies, cat #15140-122) was then added at a volume of 10 mL. Cells were eentrifuged at 250×g for 5 minutes at room temperature, and the media was aspirated. The cell pellet was resuspended in 10 ml. complete growth media. Cell number was determined using a hemacytometer. Ceils were then seeded at 2000 cells per well of a 96-well plate in 100 μL of complete growth media. The plate was incubated overnight at 37° C. and 5% CO2 in a water-jacketed incubator.
The next day, 80 μL of fresh complete media was added to each well, and CHO—K1 cells were challenged with treprostinil compound and composition treatments. The working solutions were prepared at 10× concentration, and following 2 fold serial dilutions, 20 μL aliquots were added per well to arrive at a final 1× concentration. Following a 48 hour incubation at 37° C. and 5% CO2 in a water-jacketed incubator, the inhibitory effect on cell proliferation was determined. Plates were analyzed using 20 μL of Presto Blue reagent (Life Technologies, cat #: A13262) per well. The reagent was mixed, and plates were incubated for 1 hour at 37° C. and 5% CO2 in a water-jacketed incubator. Plates were read using either a CytoFluor Series 4000 (PerSeptive BioSystems) or Synergy Neo microplate reader (BioTek) with emission λ: 590 nm and excitation λ: 560 nm.
Following a 48 hour incubation period, the inhibitory effect of the treprostinil derivative compositions on cell proliferation was determined.
CHO—K1 cells were challenged with treprostinil alkyl esters, i.e., TR compounds of Formula (A), having the following R2 groups: • C2, C3, C4, C5, C6, C8, C10 or C12 straight chain alkyl, at dosages ranging from 0.098 μM to 25 μM, Following a 48 hour incubation period, the inhibitory effect on cell proliferation was determined.
Following a 72 hour incubation period, the inhibitory effect on cell proliferation was determined. Following a 48 hour incubation period, the inhibitory effect on cell proliferation was determined.
Similarly, CHG-K1 cells were challenged with the treprostinil compositions T612 (R2═C2), T613 (R2═C8) at concentrations ranging from 1.41 μM to 180 μM.

[1] = Particle size characterization of treprostinil compositions (QELS); assay type: physicochemical; conditions: particles of compositions comprising the alkyl ester (FIG. 2)
Procedure: All particle size measurements were performed using a Wyatt Technology Mobius™ Zeta Potential/ Particle Sizing Instrument in Quasi-elastic light scattering (QELS) mode. Composition aiiquots were diluted 10-fold in pre-filtered (0.02 μm pore filter) ultrapure of deionized H2O. Light scattering data was collected and converted into particle size and size distribution using Dynamics® v. […] Reported average particle size diameter is based on the cumulants model, which mathematically fits particle diffusion constants (determined by the raw scattering intensities of particles in a suspension) to obtain the particle size mean and a distribution of particle sizes around the mean diameter.
Particle uniformity was determined using the software-calculated polydispersity (% PD). Polydispersity is defined as the standard deviation of the particle size distribution from the mean particle size value. % PD normalizes the polydispersity to the mean diameter by dividing by the mean size and multiplylng by 100. These parameters indicate whether a particle suspension has one or more size populations of particles (monomodal versus multimodal). […]
Dynamics® polydispersity parameter represents a monodisperse population of particles if % PD≦15. A calculated % PD≧57% represents a polydisperse population of particles.

T1 sequence (P43116 whole entry): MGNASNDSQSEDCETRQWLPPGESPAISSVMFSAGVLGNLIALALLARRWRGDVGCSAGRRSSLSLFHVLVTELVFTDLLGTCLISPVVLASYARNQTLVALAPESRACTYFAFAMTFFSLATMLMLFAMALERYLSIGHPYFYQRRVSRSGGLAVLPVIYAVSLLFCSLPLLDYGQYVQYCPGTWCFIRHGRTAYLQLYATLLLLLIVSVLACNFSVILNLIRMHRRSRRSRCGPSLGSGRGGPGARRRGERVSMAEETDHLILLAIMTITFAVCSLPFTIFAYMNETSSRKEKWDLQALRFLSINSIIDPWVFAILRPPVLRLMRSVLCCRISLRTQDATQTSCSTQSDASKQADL

Row | Molecule | esterase mediated conversion rate compared with other compounds (esterase) | Effect on cell proliferation (NR8383 cells) | Effect on cell proliferation: concentration with detectable inhibition (CHO-K1 cells) | also measured
1 | CCCCC[C@H](O)CC[C@@H]1[C@H]2Cc3cccc(OCC(=O)OC(CCC)CCC)c3C[C@H]2C[C@H]1O [4C7-TR] | slower conversion rate than the linear compound C8-TR | – | – | –
2 | CCCCCC(O)CCC1C(O)CC2Cc3c(cccc3OCC(=O)OC(CCC)CCCC)CC21 (stereo not shown) [4C8-TR] | slower conversion rate than the linear compound C8-TR; also recorded: slower conversion rate than the symmetrical compounds | – | – | –
3 | CCCCC[C@H](O)CC[C@@H]1[C@H]2Cc3cccc(OCC(=O)OC(CCCC)CCCC)c3C[C@H]2C[C@H]1O [5C9-TR, 5-nonanyl treprostinil] | slower conversion rate than the linear compound C8-TR | – | – | change of potency with incubation time / release profile (EP2 prostanoid receptor; dose response curves at 0.5 to 8 hr incubation): increases with incubation time; also recorded: delayed release profile; ranking of activity of the treprostinil compounds (EP2 prostanoid receptor; unformulated compounds, 10 μM and 5 μM, FIG. 21): C12-TR>C14-TR>5-nonanyl-TR>C16-TR; esterase mediated conversion rate compared with other compounds (esterase; listed as 5-nonanyl-TR): slower conversion rate than linear C8-TR
4 | CCCCCC[C@@H](C)OC(=O)COc1cccc2c1C[C@H]1C[C@@H](O)[C@H](CC[C@@H](O)CCCCC)[C@H]1C2 [(R)-2C8-TR] | no significant difference between the conversion rates of R and S isomers | – | – | –
5 | CCCCCC[C@H](C)OC(=O)COc1cccc2c1C[C@H]1C[C@@H](O)[C@H](CC[C@@H](O)CCCCC)[C@H]1C2 [(S)-2C8-TR] | no significant difference between the conversion rates of R and S isomers | – | – | –
6 | CCCCC[C@H](O)CC[C@@H]1[C@H]2Cc3cccc(OCC(=O)OCC)c3C[C@H]2C[C@H]1O [C2-TR, treprostinil ethyl ester] | – | No detectable cell inhibition | No detectable cell inhibition | –
7 | CCCCC[C@H](O)CC[C@@H]1[C@H]2Cc3cccc(OCC(=O)OCCC)c3C[C@H]2C[C@H]1O [C3-TR] | – | No detectable cell inhibition | No detectable cell inhibition | –
8 | CCCCC[C@H](O)CC[C@@H]1[C@H]2Cc3cccc(OCC(=O)OCCCC)c3C[C@H]2C[C@H]1O [C4-TR] | – | No detectable cell inhibition | No detectable cell inhibition | –
9 | CCCCCCOC(=O)COc1cccc2c1C[C@H]1C[C@@H](O)[C@H](CC[C@@H](O)CCCCC)[C@H]1C2 [C6-TR] | – | No detectable cell inhibition | No detectable cell inhibition | –
10 | CCCCCCCCOC(=O)COc1cccc2c1C[C@H]1C[C@@H](O)[C@H](CC[C@@H](O)CCCCC)[C@H]1C2 [C8-TR, treprostinil octyl ester] | – | – | 25 µM | inhibition of cell proliferation at the highest concentration (NR8383 cells): showed some inhibition of cell proliferation; inhibition of cell proliferation at the highest concentration (CHO-K1 cells): showed inhibition of cell proliferation
11 | treprostinil decyl ester [C10-TR] | – | – | – | polydispersity (% PD) [1]: around 15 % PD; duration of cAMP levels (EP2 prostanoid receptor; 5 μM, FIG. 4 and FIG. 5): sustained significantly longer than free treprostinil; cAMP levels compared with free treprostinil (EP2 prostanoid receptor; 10 μM, FIG. 3A): equivalent to free treprostinil; time for which cAMP level was sustained (EP2 prostanoid receptor; 10 μM, FIG. 3A): at least 6 hours; cAMP response compared with free treprostinil (EP2 prostanoid receptor; compositions, 5 μM, FIG. 4): greater than or equivalent to the response induced by free treprostinil; cAMP response levels of unformulated compounds (EP2 prostanoid receptor; unformulated alkyl esters, 5 μM, FIG. 5): equivalent to free treprostinil
